In PubChem BioAssay (NCI):
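Each compound was tested at five concentrations against cells in 96-well plates for 48 hours. The concentration for full growth arrest is given as TGI.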

How the values were obtained:
Experiment in all cases: growth of human tumour cells (NCI), 48 h
[1] = test system: RPMI-8226 leukemia
[2] = test system: OVCAR-4 ovarian
[3] = test system: KM12 colon
[4] = test system: SF-295 CNS
[5] = test system: HCT-15 colon
[6] = test system: COLO 205 colon
[7] = test system: 786-0 renal
[8] = test system: HL-60(TB) leukemia
[9] = test system: MCF7 breast
[10] = test system: DU-145 prostate
[11] = test system: NCI-H460 lung
[12] = test system: IGROV1 ovarian
[13] = test system: SNB-75 CNS
[14] = test system: EKVX NSCLC
[15] = test system: MOLT-4 leukemia
[16] = test system: A549 NSCLC
[17] = test system: BT-549 breast
[18] = test system: NCI-H23 lung
[19] = test system: M14 melanoma
[20] = test system: SW-620 colon
[21] = test system: T-47D breast
[22] = test system: OVCAR-3 ovarian
[23] = test system: OVCAR-8 ovarian
[24] = test system: A498 renal
[25] = test system: SK-MEL-5 melanoma
[26] = test system: UACC-62 melanoma
[27] = test system: CCRF-CEM leukemia
[28] = test system: UO-31 renal
[29] = test system: NCI-H226 lung
[30] = test system: SF-539 CNS
[31] = test system: SN12C renal
[32] = test system: MDA-MB-231 breast
[33] = test system: RXF 393 renal
[34] = test system: CAKI-1 renal
[35] = test system: HT29 colon
[36] = test system: SNB-19 CNS
[37] = test system: SK-MEL-2 melanoma
[38] = test system: HS 578T breast
[39] = test system: NCI-H522 lung
[40] = test system: NCI/ADR-RES ovarian
[41] = test system: U251 CNS
[42] = test system: SF-268 CNS
[43] = test system: HCC-2998 colon
[44] = test system: MDA-MB-435
[45] = test system: HCT-116 colon
[46] = test system: SK-MEL-28 melanoma
[47] = test system: OVCAR-5 ovarian
[48] = test system: PC-3 prostate
[49] = test system: SR leukemia
[50] = test system: K-562 leukemia
[51] = test system: HOP-62 NSCLC
[52] = test system: SK-OV-3 ovarian

Measured: TGI

CC(C)(O)[C@@H]1CC[C@](C)(C2[C@@H](O)C[C@@]3(C)C4C[C@H](OC5OCC(O)C(O)C5O)[C@H]5C(C)(C)[C@@H](OC6OCC(O)C(O)C6OC6OCC(O)C(O)C6O)CC[C@@]56C[C@@]46CC[C@]23C)O1 (some centres not stated)
> 100 µM: all assays above
